Measured values published in ChEMBL document CHEMBL2169810, “Carbamoylphosphonates control tumor cell proliferation and dissemination by simultaneously inhibiting carbonic anhydrase IX and matrix metalloproteinase-2. Toward nontoxic chemotherapy targeting tumor microenvironment” (J Med Chem, 2012).

Assays:
Carbonic anhydrase 1 = Carbonic anhydrase 1 (Homo sapiens, UniProt P00915); test: Inhibition of human Carbonic anhydrase 1-mediated CO2 hydration by stopped-flow method
Carbonic anhydrase 2 = Carbonic anhydrase 2 (Homo sapiens, UniProt P00918); test: Inhibition of human Carbonic anhydrase 2-mediated CO2 hydration by stopped-flow method
Carbonic anhydrase 12 = Carbonic anhydrase 12 (Homo sapiens, UniProt O43570); test: Inhibition of human Carbonic anhydrase 12-mediated CO2 hydration by stopped-flow method
Carbonic anhydrase 9 = Carbonic anhydrase 9 (Homo sapiens, UniProt Q16790); test: Inhibition of human Carbonic anhydrase 9-mediated CO2 hydration by stopped-flow method
HT-1080 [1] = test: Cytotoxicity against human HT1080 cells assessed as increase in LDH level up to 100 uM after 24 hrs in normoxic condition by spectrophotometric analysis relative to control; format: cell-based; details: ht-1080, 24 h
[2] = target: T1, 72 kDa type IV collagenase (Homo sapiens, UniProt P08253); test: Inhibition of human recombinant MMP2 measured every 5 mins for 3 hrs
HT-1080 [3] = test: Cytotoxicity against human HT1080 cells assessed as increase in LDH level at 1 uM after 24 hrs in hypoxic condition by spectrophotometric analysis relative to control; format: functional
HeLa [4] = test: Cytotoxicity against human HeLa cells assessed as increase in LDH level up to 100 uM after 24 hrs in normoxic condition by spectrophotometric analysis relative to control; format: cell-based
B16-F10 [5] = test: Antimetastatic activity against mouse B16F10 cells xenografted in C57BL mouse assessed as decrease in lung metastasis at 50 mg/kg, po administered QD measured after 21 days; format: functional; parameters: scale not given: the % may be the effect or the level left
B16-F10 [6] = test: Antimetastatic activity against mouse B16F10 cells xenografted in C57BL mouse assessed as decrease in lung metastasis at 25 mg/kg, ip administered QD measured after 21 days; format: functional; parameters: scale not given: the % may be the effect or the level left; details: route intraperitoneal
HT-1080 [7] = test: Cytotoxicity against human HT1080 cells assessed as increase in LDH level at 10 uM after 24 hrs in hypoxic condition by spectrophotometric analysis relative to control; format: functional
HeLa [8] = test: Cytotoxicity against human HeLa cells assessed as increase in LDH level after 24 hrs in hypoxic condition by spectrophotometric analysis relative to control; format: functional, cell-based
B16-F10 [9] = test: Antimetastatic activity against mouse B16F10 cells xenografted in C57BL mouse assessed as decrease in lung metastasis at 12.5 mg/kg, ip administered QD measured after 21 days; format: functional; parameters: scale not given: the % may be the effect or the level left; details: route intraperitoneal
HT-1080 [10] = test: Cytotoxicity against human HT1080 cells assessed as increase in LDH level after 24 hrs in hypoxic condition by spectrophotometric analysis relative to control; format: functional, cell-based
HT-1080 [11] = test: Cytotoxicity against human HT1080 cells assessed as increase in LDH level at 50 uM after 24 hrs in hypoxic condition by spectrophotometric analysis relative to control; format: functional
B16-F10 [12] = test: Antimetastatic activity against mouse B16F10 cells xenografted in C57BL mouse assessed as decrease in lung metastasis at 50 mg/kg, ip administered QD measured after 21 days; format: functional; parameters: scale not given: the % may be the effect or the level left; details: route intraperitoneal
[13] = Half life in Sprague-Dawley rat at 33 mg/kg, iv; format: ADME, organism-based; parameters: dose 33 mg/kg, route intravenous; details: in vivo
HeLa [14] = test: Cytotoxicity against human HeLa cells assessed as increase in LDH level at 50 uM after 24 hrs in hypoxic condition by spectrophotometric analysis relative to control; format: functional
Hydroxyapatite = test: Binding affinity to bone mineral hydroxyapatite at 100 uM after 17 hrs
[15] = Volume of distribution at steady state in Sprague-Dawley rat at 33 mg/kg, iv; format: ADME, organism-based; parameters: dose 33 mg/kg, route intravenous; details: in vivo, read-out: Vdss
[16] = target: T1, 72 kDa type IV collagenase; test: Inhibition of MMP2

Carbonic anhydrase 1, sequence (P00915 whole entry): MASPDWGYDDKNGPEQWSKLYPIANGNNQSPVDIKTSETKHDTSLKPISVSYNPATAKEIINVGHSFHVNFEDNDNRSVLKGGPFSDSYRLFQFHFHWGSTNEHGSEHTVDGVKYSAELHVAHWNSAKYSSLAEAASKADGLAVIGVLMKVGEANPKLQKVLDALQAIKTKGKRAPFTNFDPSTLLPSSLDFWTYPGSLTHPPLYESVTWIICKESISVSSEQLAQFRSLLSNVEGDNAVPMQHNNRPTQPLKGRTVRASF
Carbonic anhydrase 12, sequence (O43570 whole entry): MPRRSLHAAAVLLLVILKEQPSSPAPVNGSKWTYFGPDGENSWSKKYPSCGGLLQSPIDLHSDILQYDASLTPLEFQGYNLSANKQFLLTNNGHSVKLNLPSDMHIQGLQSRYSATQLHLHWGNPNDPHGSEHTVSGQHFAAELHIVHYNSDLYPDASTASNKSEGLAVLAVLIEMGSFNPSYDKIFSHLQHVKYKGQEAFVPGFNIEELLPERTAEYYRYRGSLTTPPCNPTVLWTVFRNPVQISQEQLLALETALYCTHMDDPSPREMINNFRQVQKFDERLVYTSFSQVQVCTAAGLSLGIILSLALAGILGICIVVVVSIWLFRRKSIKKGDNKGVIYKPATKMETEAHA
T1 sequence (P08253 whole entry): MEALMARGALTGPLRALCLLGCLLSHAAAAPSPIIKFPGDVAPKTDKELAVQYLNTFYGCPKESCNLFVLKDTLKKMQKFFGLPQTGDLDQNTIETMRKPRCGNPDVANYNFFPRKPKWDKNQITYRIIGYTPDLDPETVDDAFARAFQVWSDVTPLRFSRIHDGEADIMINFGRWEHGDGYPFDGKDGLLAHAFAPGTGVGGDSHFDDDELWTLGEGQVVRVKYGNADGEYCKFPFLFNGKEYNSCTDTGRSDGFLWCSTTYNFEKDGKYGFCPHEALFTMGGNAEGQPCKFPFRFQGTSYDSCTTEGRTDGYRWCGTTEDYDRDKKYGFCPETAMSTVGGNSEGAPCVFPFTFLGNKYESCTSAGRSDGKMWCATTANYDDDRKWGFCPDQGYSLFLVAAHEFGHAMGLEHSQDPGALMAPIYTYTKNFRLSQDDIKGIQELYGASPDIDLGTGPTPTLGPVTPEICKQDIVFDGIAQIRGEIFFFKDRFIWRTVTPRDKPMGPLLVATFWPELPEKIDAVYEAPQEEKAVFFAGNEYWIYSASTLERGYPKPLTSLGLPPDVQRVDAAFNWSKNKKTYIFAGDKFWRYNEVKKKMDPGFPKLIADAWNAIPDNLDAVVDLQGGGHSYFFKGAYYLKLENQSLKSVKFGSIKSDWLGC

SMILES	IC50 (Carbonic anhydrase 1)	IC50 (Carbonic anhydrase 2)	IC50 (Carbonic anhydrase 12)	IC50 (Carbonic anhydrase 9)	other results
CCC(CC)NC(=O)P(=O)(O)O	6.71 µM	8.79 µM	4.65 µM	8.26 µM	
CCOP(=O)(OCC)C(=O)NCCCCNC(=O)P(=O)(OCC)OCC	9.7 µM	9.59 µM	2.72 µM	9.65 µM	
O=C(NCCN1CCCC1)P(=O)(O)O	9.43 µM	9.66 µM	5.43 µM	8.8 µM	
O=C(NCCCCCCNS(=O)(=O)c1ccc(Oc2ccccc2)cc1)P(=O)(O)O	0.38 µM	0.1 µM	6.2 µM	7 µM	Activity (HT-1080 [1]): Non-toxic; IC50 [2]: 4 µM; fold change (FC) (HT-1080 [3]): 1; Activity (HeLa [4]): Non-toxic; Activity (B16-F10 [5]): 50%; Activity (B16-F10 [6]): 90%; fold change (FC) (HT-1080 [7]): 1.3; Activity (HeLa [8]): Dose-dependent effect; Activity (B16-F10 [9]): 82%; Activity (HT-1080 [10]): Dose-dependent effect; fold change (FC) (HT-1080 [11]): 1.9
O=C(NC1CCCC1)P(=O)(O)O [(CYCLOPENTYLAMINO)CARBONYLPHOSPHONIC ACID]	8.79 µM	7.41 µM	7.26 µM	8.97 µM	Activity (B16-F10 [5]): 80%; Activity (B16-F10 [12]): 86%
N[C@@H]1CCCC[C@@H]1NC(=O)P(=O)(O)O	1.6 µM	1.32 µM	6 µM	8.6 µM	
O=C(NCCCCNS(=O)(=O)c1ccc(Oc2ccccc2)cc1)P(=O)(O)O	0.75 µM	0.1 µM	5.6 µM	6.1 µM	
O=C(NCCCCCNS(=O)(=O)c1ccc(Oc2ccccc2)cc1)P(=O)(O)O	0.52 µM	0.31 µM	5.7 µM	6.3 µM	Activity (HT-1080 [1]): Non-toxic; IC50 [2]: 4 µM; fold change (FC) (HT-1080 [3]): 1; Activity (HeLa [4]): Non-toxic; Activity (B16-F10 [5]): 80%; half-life [13]: 9 h; Activity (B16-F10 [6]): 76%; fold change (FC) (HeLa [14]): 1.3; Drug absorption (Hydroxyapatite): 44%; fold change (FC) (HT-1080 [7]): 1.5; Activity (HeLa [8]): Dose-dependent effect; Activity (B16-F10 [12]): 90%; Activity (B16-F10 [9]): 57%; Activity (HT-1080 [10]): Dose-dependent effect; Vd [15]: 1.65 L/kg; fold change (FC) (HT-1080 [11]): 2.3
O=C(NCCN1CCCCC1)P(=O)(O)O	7.82 µM	8.6 µM	7.64 µM	9 µM	
O=C(NC1CCCCC1)P(=O)(O)O [(CYCLOHEXYLAMINO)CARBONYLPHOSPHONIC ACID]	7.89 µM	8.81 µM	5.59 µM	8.89 µM	
N[C@H]1CCCC[C@@H]1NC(=O)P(=O)(O)O	8.24 µM	8.28 µM	8.26 µM	7.14 µM	
O=C(NCCNS(=O)(=O)c1ccc(Oc2ccccc2)cc1)P(=O)(O)O	0.98 µM	0.82 µM	6.9 µM	7 µM	
O=C(NCCNC(=O)P(=O)(O)O)c1ccc(Oc2ccccc2)cc1	0.62 µM	0.61 µM	8.6 µM	9.9 µM	IC50 [16]: 20 µM
CC(C)NC(=O)P(=O)(O)O [(ISOPROPYLAMINO)CARBONYLPHOSPHONIC ACID]	8.81 µM	13.9 µM	7.27 µM	8.3 µM	
C[C@@H](NC(=O)P(=O)(O)O)C1CCCCC1	6.78 µM	8.85 µM	6.97 µM	8.12 µM	
O=C(NCCc1ccccc1)P(=O)(O)O [PHENETHYLCARBAMOYLPHOSPHONIC ACID]	7.68 µM	8 µM	5.44 µM	6.08 µM	
O=C(NCCCCNC(=O)P(=O)(O)O)P(=O)(O)O	9.74 µM	8.82 µM	6.02 µM	9.1 µM	
O=C(NC1CCCCCCC1)P(=O)(O)O [(CYCLOOCTYLAMINO)CARBONYLPHOSPHONIC ACID]	8.02 µM	7.89 µM	7.99 µM	9.14 µM	
O=C(NCCCNS(=O)(=O)c1ccc(Oc2ccccc2)cc1)P(=O)(O)O	0.71 µM	0.58 µM	6.4 µM	6.8 µM	
C[C@H](NC(=O)P(=O)(O)O)C1CCCCC1	5.31 µM	9.45 µM	6.64 µM	6.36 µM	
O=C(NCC1CCCCC1)P(=O)(O)O [CYCLOHEXYLMETHYLCARBAMOYLPHOSPHONIC ACID]	7.36 µM	9.23 µM	7.44 µM	8.59 µM	
